Measured values: patent US9050376B2 (priority 2007, dated 2015)
Entries after “also recorded” stand apart in the source; their conditions may differ.

Experiments:
[1] = system: bone-marrow-derived macrophages (BMDM); format: cell-based, mouse; details: 24 hours incubation
[2] = parameters: species or system C57BL/6 mice; details: mouse, in vivo, iv
[3] = parameters: species or system C57BL/6 mice; details: mouse, in vivo
B. anthracis = system: B. anthracis; parameters: species or system A/J mice; details: mouse, in vivo
TLR7 = target: T1, TLR7 (Homo sapiens, UniProt Q9NYK1); assay: TLR transformants, TLR7 agonist specificity and potency; format: cell-based
T1 construct: expressed in transfected cells
T1 sequence (Q9NYK1 27-1049): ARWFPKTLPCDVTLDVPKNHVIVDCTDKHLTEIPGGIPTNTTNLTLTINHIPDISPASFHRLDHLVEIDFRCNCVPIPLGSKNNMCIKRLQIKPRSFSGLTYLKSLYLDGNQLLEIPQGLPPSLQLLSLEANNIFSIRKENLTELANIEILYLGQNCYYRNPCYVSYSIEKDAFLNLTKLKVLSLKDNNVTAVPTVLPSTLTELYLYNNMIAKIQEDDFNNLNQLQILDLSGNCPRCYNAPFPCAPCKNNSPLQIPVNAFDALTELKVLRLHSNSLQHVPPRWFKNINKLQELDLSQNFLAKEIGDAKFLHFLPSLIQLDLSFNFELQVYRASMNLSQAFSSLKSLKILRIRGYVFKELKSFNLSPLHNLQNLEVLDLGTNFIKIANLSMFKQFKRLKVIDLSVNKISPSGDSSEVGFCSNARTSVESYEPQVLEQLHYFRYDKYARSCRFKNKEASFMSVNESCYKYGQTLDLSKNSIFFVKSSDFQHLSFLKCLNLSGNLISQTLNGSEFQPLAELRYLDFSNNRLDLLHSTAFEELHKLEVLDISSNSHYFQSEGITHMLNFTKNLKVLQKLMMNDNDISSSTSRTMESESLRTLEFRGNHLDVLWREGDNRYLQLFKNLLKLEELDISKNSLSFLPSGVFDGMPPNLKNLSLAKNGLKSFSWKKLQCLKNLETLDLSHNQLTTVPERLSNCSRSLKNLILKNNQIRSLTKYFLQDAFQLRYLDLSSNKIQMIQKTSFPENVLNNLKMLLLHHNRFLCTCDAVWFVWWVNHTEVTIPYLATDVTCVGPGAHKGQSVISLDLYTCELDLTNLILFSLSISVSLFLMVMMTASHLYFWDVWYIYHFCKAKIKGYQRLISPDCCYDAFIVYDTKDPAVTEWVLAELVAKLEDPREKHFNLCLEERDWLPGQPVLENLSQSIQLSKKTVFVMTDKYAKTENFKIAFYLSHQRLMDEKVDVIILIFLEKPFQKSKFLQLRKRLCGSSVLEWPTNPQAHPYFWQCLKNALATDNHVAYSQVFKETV

anthrax infection = details: in vivo
[4] = system: B16 melanoma tumor cells expressing the cOVA transgene; parameters: species or system C57/B1 mice; details: mouse, in vivo

COCCOc1nc(N)c2nc(O)n(Cc3ccc(C=O)cc3)c2n1 [UC-1V150, 4-[6-amino-8-hydroxy-2-(2-methoxyethoxy)purin-9-ylmethyl]benzaldehyde]
cytokine release / activation of BMDM [1]: stimulated cytokine release; also recorded: active at nanomolar concentrations
time of peak serum cytokine levels [2]: about 2 hours
cytokine production in the BALF [3]: induced selective cytokine production
effect on survival / protection (B. anthracis): no significant difference; also recorded: failed to protect
TLR specificity (TLR7): specific TLR7 agonist

O=C(O)c1cn(C2CC2)c2cc(N3CCNCC3)c(F)cc2c1=O [ciprofloxacin]
survival (anthrax infection): 15-25%

chicken ovalbumin: antigen alone, comparator
median survival [4]: 22 days
